{"source": "paper PMC8790593", "about": "“Synthesis of broad-specificity activity-based probes for exo-β-mannosidases” (Organic & Biomolecular Chemistry, 2021)", "assay_type_in_all_cases": "biochemical", "conditions_in_all_cases": "read-out: % inhibition at 1 mM", "key": {"CmMan5A [1]": {"biological_target": "T1, CmMan5A (Cellvibrio mixtus, UniProt Q6QT42)", "T1 construct": "gene man5A; recombinant, codon-optimised gene in pET24a (NdeI/XhoI), C-terminal 6xHis, E. coli; matches previously crystallised form; GH5", "T1 sequence (Q6QT42 26-456)": "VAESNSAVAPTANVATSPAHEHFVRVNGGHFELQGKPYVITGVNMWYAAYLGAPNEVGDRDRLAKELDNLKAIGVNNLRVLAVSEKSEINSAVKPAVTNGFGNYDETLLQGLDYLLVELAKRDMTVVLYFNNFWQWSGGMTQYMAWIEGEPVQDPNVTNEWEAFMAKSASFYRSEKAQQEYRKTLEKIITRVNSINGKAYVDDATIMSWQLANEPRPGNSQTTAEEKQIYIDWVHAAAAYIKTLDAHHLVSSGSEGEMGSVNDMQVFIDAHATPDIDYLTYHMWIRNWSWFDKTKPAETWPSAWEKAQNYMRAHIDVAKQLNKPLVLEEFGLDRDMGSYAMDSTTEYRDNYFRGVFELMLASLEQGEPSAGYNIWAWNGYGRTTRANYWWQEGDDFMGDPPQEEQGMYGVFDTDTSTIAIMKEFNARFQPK", "experiment": "residual activity with 4MU-beta-Man after preincubation; intact MS"}, "BsGH164 [2]": {"biological_target": "T2, BsGH164 (Bacteroides salyersiae, UniProt I9SUA3)", "T2 construct": "gene HMPREF1071_03408; recombinant pET28-His6-BsGH164, E. coli, His6 kept; GH164 exo-beta-mannosidase", "T2 sequence (I9SUA3 20-673)": "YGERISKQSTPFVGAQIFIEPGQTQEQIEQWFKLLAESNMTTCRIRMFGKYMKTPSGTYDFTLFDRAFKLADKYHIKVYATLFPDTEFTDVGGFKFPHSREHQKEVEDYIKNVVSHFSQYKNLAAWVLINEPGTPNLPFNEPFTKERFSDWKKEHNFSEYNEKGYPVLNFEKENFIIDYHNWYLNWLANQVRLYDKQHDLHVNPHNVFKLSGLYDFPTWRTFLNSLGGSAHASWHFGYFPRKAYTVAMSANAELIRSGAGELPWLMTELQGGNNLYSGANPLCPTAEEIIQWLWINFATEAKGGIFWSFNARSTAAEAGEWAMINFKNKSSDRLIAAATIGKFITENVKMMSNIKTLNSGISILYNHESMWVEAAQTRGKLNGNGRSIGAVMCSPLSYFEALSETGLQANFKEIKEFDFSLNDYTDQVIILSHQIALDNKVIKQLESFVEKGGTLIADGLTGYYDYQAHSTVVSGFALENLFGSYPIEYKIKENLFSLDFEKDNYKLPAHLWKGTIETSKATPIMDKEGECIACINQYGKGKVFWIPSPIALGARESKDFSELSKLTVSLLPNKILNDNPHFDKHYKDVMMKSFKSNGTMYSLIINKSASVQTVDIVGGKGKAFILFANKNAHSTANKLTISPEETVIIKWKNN", "experiment": "residual activity with 4MU-beta-Man after preincubation; covalent crystal structure ([…] A) and intact MS"}, "BsGH164 [3]": {"biological_target": "T2, BsGH164", "experiment": "residual activity with 4MU-beta-Man after preincubation; covalent crystal structure ([…] A) and intact MS", "remark": "listed apart in the source"}, "BtMan2A": {"biological_target": "T3, BtMan2A (Bacteroides thetaiotaomicron, UniProt Q8AAK6)", "T3 construct": "gene BT_0458; recombinant pET28a-BtMan2A-His6, E. coli, His tag kept; GH2 exo-beta-mannosidase", "T3 sequence (Q8AAK6 26-864)": "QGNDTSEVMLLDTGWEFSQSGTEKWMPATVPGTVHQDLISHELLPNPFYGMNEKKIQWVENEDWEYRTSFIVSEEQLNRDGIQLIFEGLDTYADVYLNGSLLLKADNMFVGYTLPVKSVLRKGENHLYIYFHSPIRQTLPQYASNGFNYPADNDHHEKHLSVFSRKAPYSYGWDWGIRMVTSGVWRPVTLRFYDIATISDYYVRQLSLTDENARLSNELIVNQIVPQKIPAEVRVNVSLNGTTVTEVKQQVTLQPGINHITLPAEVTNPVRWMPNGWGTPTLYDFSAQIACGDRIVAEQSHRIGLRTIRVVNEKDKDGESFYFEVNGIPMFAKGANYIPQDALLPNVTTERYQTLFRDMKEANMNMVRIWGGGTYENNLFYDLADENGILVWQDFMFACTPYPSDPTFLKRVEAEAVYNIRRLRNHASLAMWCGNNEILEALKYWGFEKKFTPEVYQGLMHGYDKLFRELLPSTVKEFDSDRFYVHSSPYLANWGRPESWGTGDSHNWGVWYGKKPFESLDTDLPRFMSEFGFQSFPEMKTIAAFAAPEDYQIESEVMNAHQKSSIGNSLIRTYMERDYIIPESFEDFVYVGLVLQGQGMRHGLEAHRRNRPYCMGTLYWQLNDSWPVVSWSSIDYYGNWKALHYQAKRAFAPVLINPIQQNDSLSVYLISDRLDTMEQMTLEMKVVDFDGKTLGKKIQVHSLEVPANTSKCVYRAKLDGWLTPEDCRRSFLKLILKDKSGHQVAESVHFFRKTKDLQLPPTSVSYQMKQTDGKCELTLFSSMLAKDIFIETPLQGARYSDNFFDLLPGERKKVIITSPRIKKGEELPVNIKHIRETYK", "experiment": "residual activity with 4MU-beta-Man after preincubation; covalent crystal structure ([…] A) and intact MS"}, "CmMan5A [4]": {"biological_target": "T1, CmMan5A", "experiment": "residual activity with 4MU-beta-Man after preincubation; covalent crystal structure ([…] A) and intact MS"}}, "note": "Like-named read-outs stand apart in the source and are kept apart here.", "data": [{"smiles": "OC[C@@H]1[C@@H](O)[C@H](O)[C@H](O)[C@@H]2O[C@H]12", "note": "[compound 1, β-D-manno-cyclophellitol]", "values": [{"measurement": "inhibition at 1000 µM", "setting": "CmMan5A [1]", "result": 20, "unit": "%"}, {"measurement": "inhibition at 1000 µM", "setting": "BsGH164 [2]", "result": 76, "unit": "%"}]}, {"smiles": "OC[C@@H]1[C@@H](O)[C@H](O)[C@H](O)[C@@H]2N[C@H]12", "note": "[compound 2, β-D-manno-cyclophellitol aziridine]", "values": [{"measurement": "inhibition at 1000 µM", "setting": "CmMan5A [1]", "result": 20, "unit": "%"}, {"measurement": "inhibition at 1000 µM", "setting": "BsGH164 [3]", "result": 30, "unit": "%"}]}, {"smiles": "[N-]=[N+]=NCCCCCCCCN1[C@@H]2[C@H](CO)[C@@H](O)[C@H](O)[C@H](O)[C@@H]21", "note": "(stereo partly drawn) [compound 3, N-octylazido aziridine 3]", "values": [{"measurement": "inhibition at 1000 µM", "setting": "BtMan2A", "result": 85, "unit": "%"}, {"measurement": "inhibition at 1000 µM", "setting": "CmMan5A [4]", "result": 85, "unit": "%"}]}]}
